{"source": "paper PMC6198068", "about": "“Discovery of a Novel Nav1.7 Inhibitor From Cyriopagopus albostriatus Venom With Potent Analgesic Efficacy” (Frontiers in Pharmacology, 2018)", "key": {"hNav1.7": {"target": "T1, hNav1.7 (Homo sapiens, UniProt Q15858)", "T1 construct": "expressed in transfected cells; host or cells: HEK293T", "T1 sequence (O60939 30-215)": "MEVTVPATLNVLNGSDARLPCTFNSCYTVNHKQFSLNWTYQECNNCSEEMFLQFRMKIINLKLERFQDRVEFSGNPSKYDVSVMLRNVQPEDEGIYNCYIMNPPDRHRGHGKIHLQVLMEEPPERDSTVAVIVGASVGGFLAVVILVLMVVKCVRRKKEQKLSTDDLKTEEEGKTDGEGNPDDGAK", "T1 sequence (Q15858 other isoform, or with tags, fused parts or gaps)": "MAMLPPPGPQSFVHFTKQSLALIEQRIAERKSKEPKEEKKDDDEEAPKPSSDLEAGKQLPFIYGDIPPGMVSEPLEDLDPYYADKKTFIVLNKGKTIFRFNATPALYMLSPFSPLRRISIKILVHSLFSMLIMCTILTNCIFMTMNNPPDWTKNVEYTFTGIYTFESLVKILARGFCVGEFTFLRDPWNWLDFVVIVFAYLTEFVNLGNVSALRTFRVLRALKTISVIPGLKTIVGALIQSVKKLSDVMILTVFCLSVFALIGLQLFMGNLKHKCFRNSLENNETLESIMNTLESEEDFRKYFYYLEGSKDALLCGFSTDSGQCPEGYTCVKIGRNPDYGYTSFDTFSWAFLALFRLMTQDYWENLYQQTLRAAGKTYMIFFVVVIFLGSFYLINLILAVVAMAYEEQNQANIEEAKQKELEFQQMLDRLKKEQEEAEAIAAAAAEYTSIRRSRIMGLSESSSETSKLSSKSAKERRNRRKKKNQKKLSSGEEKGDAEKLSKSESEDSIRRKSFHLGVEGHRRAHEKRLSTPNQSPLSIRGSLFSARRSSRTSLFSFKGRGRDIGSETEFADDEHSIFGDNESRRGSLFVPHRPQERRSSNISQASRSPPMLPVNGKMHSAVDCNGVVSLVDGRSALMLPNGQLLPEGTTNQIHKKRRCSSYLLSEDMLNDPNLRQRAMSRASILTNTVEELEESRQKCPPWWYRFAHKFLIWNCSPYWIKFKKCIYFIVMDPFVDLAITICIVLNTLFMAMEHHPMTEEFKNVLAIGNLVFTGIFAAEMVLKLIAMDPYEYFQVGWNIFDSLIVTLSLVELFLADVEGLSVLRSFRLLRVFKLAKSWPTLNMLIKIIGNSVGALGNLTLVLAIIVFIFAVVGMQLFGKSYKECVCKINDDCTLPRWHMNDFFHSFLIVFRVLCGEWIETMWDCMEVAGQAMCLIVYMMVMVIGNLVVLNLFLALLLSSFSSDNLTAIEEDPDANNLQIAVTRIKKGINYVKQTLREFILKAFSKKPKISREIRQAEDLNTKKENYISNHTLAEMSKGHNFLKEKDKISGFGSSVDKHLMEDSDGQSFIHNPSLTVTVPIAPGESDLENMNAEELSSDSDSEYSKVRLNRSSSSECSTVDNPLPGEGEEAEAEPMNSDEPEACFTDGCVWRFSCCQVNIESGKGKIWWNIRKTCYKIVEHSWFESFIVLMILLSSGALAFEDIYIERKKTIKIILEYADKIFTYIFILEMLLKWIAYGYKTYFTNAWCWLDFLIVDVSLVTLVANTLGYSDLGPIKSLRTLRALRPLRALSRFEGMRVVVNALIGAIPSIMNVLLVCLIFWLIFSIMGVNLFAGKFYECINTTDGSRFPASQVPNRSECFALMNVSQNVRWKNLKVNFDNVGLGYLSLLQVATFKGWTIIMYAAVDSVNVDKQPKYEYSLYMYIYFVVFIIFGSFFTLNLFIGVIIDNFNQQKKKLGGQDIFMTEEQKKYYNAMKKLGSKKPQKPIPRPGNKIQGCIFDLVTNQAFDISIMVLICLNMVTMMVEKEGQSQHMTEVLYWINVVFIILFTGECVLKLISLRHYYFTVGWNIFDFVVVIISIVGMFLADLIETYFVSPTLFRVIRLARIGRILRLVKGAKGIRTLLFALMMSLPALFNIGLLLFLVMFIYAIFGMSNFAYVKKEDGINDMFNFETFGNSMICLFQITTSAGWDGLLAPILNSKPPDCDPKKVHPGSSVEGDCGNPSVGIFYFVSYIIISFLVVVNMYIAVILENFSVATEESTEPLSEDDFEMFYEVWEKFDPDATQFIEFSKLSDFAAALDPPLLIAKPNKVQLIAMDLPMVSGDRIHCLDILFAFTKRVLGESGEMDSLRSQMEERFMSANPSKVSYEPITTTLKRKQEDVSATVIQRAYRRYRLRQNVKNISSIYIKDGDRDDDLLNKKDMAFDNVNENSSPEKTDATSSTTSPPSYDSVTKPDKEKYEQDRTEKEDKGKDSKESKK", "T1 sequence (Q07699 19-218, further chain)": "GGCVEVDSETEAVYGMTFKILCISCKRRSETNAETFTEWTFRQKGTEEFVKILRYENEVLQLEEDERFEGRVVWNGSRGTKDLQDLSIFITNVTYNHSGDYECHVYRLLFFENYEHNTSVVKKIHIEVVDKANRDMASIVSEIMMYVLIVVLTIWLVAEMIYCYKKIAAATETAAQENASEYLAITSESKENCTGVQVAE", "assay": "Whole-cell patch-clamp, WT Nav1.7 in HEK293T cells", "assay_type": "cell-based", "conditions": "mean ± SEM", "text": "(§1) The cDNA genes encoding rat Nav1.4 and human Nav1.7 were subcloned into vectors pRGB4 and pcDNA3.1-mod, respectively. Mutations of rNav1.4 (N655D, Q657E, and N655D/Q657E) and hNav1.7 (D816N, E818Q, and D816N/E818Q) were constructed using the Gene Tailor Site-Directed Mutagenesis system (Invitrogen, Carlsbad, CA, United States), according to the manufacturer’s instructions. Nav1.2–Nav1.7 and mutant plasmids together with eGFP were transiently transfected into HEK293T cells while Nav1.8 together with eGFP was transiently transfected into ND7/23 cells by Lipofectamine 2000 (Invitrogen, Carlsbad, CA, United States). Additionally, plasmids β1- and β2-eGFP encoding the human β1 and β2 subunits, respectively, were co-transfected with those encoding WT Nav1.7 and Nav1.7 mutations in HEK293T cells. Human Nav1.9 was transfected into ND7/23 cells according to a previous report ([Zhou et al., 2017]). […] Cells with green fluorescent protein fluorescence were selected for whole-cell patch-clamp recordings 24 h after transfection.\n(§2) Whole-cell patch-clamp recordings were performed at room temperature (20–25°C) using an EPC 10 USB Patch Clamp Amplifier (HEKA, Elektronik, Lambrecht, Germany). […] Data was analyzed by software Igo Pro 6.10A (WaveMetrics, Lake Oswego, OR, United States), SigmaPlot 10.0 (Sigma-Aldrich, St. Louis, MO, United States), OriginPro 8 (OriginLab Corp., Northampton, MA, United States), and GraphPad Prism 5 (GraphPad Software, San Diego, CA, United States). […]\n(§3) Concentration-response curves were fitted using the following Hill logistic equation: y = fmax − (fmax − fmin)/(1 + (x/IC50)^n), where fmax and fmin, respectively, represent the channel’s maximum and minimum responses to toxins, fmin was set to 0, x represents toxin concentration and n is an empirical Hill coefficient. […] Peak inward currents from steady-state inactivation were normalized by the maximum current amplitude and fit with a Boltzmann equation I = Imin + 1/(1 + exp[Vm − V1/2/k]) where I is the current amplitude measured during the test depolarization, V1/2 is the midpoint of inaction, and k is the slope factor. […]"}, "Nav1.3": {"target": "T2, Nav1.3 (Homo sapiens, UniProt Q9NY46)", "T2 construct": "expressed in transfected cells; host or cells: HEK293T", "assay": "Whole-cell patch-clamp, Nav1.3 in HEK293T cells", "assay_type": "cell-based", "conditions": "mean ± SEM", "text": "as §1, with “cells.” for “cells. Human Nav1.9 was transfected into ND7/23 cells according to a previous report ([Zhou et al., 2017]).”\nas §2"}, "Nav1.5": {"target": "T3, Nav1.5 (Homo sapiens, UniProt Q14524)", "T3 construct": "expressed in transfected cells; host or cells: HEK293T", "T3 sequence (Q14524 whole entry)": "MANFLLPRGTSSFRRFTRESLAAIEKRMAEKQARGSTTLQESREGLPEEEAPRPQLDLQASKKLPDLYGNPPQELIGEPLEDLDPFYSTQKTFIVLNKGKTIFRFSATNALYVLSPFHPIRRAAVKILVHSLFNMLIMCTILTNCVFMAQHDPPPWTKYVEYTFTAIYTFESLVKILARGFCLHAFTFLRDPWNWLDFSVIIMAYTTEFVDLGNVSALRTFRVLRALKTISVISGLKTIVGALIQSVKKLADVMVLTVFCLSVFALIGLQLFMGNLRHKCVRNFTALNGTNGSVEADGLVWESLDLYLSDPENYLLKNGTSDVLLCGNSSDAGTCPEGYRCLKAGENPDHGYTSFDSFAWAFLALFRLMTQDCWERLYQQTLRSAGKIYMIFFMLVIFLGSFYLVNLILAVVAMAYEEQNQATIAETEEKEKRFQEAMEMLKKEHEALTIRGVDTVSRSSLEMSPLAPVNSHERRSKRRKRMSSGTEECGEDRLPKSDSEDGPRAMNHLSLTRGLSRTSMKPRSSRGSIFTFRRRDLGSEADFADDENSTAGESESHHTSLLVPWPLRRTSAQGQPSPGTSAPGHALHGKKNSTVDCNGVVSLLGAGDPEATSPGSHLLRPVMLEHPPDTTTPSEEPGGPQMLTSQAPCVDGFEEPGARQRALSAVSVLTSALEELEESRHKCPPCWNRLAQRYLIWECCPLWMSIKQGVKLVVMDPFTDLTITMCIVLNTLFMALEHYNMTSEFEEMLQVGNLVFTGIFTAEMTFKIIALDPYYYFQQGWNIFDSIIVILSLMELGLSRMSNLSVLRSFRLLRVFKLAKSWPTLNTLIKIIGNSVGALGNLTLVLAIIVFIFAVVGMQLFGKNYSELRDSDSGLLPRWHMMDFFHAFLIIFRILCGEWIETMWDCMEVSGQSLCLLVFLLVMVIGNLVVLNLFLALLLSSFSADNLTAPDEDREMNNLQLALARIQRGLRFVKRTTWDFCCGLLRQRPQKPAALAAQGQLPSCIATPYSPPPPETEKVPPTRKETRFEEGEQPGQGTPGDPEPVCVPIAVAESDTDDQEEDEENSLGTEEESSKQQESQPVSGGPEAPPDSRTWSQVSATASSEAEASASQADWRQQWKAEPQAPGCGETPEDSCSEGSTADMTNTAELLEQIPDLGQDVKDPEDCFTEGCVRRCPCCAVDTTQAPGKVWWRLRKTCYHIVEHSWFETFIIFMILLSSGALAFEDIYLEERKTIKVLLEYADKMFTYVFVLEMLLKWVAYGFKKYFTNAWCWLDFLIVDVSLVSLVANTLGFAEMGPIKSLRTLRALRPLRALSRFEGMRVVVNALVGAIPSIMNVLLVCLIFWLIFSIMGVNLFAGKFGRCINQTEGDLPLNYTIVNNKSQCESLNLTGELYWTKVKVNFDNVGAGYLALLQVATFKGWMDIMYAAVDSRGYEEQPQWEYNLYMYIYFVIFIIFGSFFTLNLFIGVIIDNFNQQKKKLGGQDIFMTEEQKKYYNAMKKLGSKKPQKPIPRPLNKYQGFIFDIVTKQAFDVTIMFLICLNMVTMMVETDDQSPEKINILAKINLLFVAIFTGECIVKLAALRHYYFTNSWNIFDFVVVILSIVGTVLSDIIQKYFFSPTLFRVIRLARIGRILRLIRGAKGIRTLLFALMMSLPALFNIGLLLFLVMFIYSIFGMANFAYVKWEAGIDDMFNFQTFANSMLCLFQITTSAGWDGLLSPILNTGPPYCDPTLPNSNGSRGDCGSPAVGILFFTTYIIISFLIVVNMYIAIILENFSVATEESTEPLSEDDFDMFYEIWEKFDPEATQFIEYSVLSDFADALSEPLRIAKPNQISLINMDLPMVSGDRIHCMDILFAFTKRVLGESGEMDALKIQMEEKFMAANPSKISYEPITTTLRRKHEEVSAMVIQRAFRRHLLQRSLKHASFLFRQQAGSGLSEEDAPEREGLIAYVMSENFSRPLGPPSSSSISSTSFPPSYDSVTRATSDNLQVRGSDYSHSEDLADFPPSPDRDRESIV", "assay": "in vitro", "text": "as §1, §2, §3"}, "Nav1.7": {"target": "T4, Nav1.7 (Homo sapiens, UniProt Q15858)", "T4 construct": "expressed in transfected cells; host or cells: HEK293T", "T4 sequence (O60939 30-215)": "as the sequence (O60939 30-215) above", "T4 sequence (Q15858 other isoform, or with tags, fused parts or gaps)": "as the sequence (Q15858 other isoform, or with tags, fused parts or gaps) above", "T4 sequence (Q07699 19-218, further chain)": "as the sequence (Q07699 19-218, further chain) above", "assay": "Rate of toxin dissociation from Nav1.7 at depolarizing pulses", "assay_type": "cell-based", "conditions": "1 μM, mean ± SEM, n = 6–11 cells", "text": "as §1, §2\nFast inactivation time constants were calculated by fitting current decay traces with a single exponential function using the I–V protocol described above. Recovery from fast-inactivation (repriming) was assessed by using a two-pulse protocol consisting of a depolarizing pulse to −10 mV for 50 ms to inactivate channels, followed by a step to −100 mV of variable duration (1 to 1024 ms) to promote recovery, and 50 ms test pulse to −10 mV to assess availability of channels. […]"}, "WT Nav1.7": {"target": "T5, WT Nav1.7 (Homo sapiens, UniProt Q15858)", "T5 construct": "expressed in transfected cells; host or cells: HEK293T", "T5 sequence (Q07699 19-218)": "as the sequence (Q07699 19-218, further chain) above", "T5 sequence (Q15858 other isoform, or with tags, fused parts or gaps)": "as the sequence (Q15858 other isoform, or with tags, fused parts or gaps) above", "T5 sequence (O60939 30-215, further chain)": "as the sequence (O60939 30-215) above", "assay": "Time course of Nav1.7 inhibition and recovery upon washing", "assay_type": "cell-based", "conditions": "1 μM, n = 4", "text": "as §1, with “cells.” for “cells. Human Nav1.9 was transfected into ND7/23 cells according to a previous report ([Zhou et al., 2017]).”\nas §2"}}, "note": "Where a SMILES comes first, the peptide text is derived from it. Bridges are numbered along the chain shown (N, C = ends)."}
{"smiles": "CC(C)C[C@H](NC(=O)[C@H](CC(=O)O)NC(=O)[C@H](Cc1ccc(O)cc1)NC(=O)[C@H](CCCCN)NC(=O)[C@@H]1CSSC[C@@H]2NC(=O)[C@H](CCCCN)NC(=O)[C@H](CC(=O)O)NC(=O)[C@H](CC(N)=O)NC(=O)[C@H](CO)NC(=O)[C@@H]3CCCN3C(=O)[C@H](CC(N)=O)NC(=O)[C@@H]3CSSC[C@H](NC(=O)[C@H](C(C)C)NC(=O)[C@H](CC(C)C)NC(=O)[C@H](CO)NC(=O)[C@H](CO)NC(=O)[C@H](CO)NC(=O)[C@H](CCCCN)NC(=O)[C@H](CSSC[C@H](NC(=O)[C@H](C)N)C(=O)N[C@@H](CC(C)C)C(=O)NCC(=O)N[C@@H](Cc4ccccc4)C(=O)NCC(=O)N[C@@H](CCC(=O)O)C(=O)N[C@@H](CCCCN)C(=O)N3)NC2=O)C(=O)N[C@@H](CO)C(=O)N[C@@H](CCC(N)=O)C(=O)N[C@@H](CCCCN)C(=O)N[C@@H](Cc2c[nH]cn2)C(=O)N[C@@H](CCCCN)C(=O)N[C@@H](Cc2c[nH]c3ccccc23)C(=O)N1)C(=O)O", "note": "[Ca2a] (H-ACLGFGEKCNPSNDKCCKSSSLVCSQKHKWCKYDL-OH; disulfide 2-17, 9-24, 16-31 (inferred); N-terminus and C-terminus assumed)", "values": [{"measurement": "inhibition at 0.2 µM", "setting": "hNav1.7; HEK-293T, 0.2 μM, read-out: inhibition of Nav1.7 current", "result": "64.5 ± 2.1", "unit": "%"}, {"measurement": "inhibition at 1 µM", "setting": "hNav1.7; HEK-293T, 1 μM, 50 ms depolarization to −10 mV from −100 mV, room temperature, read-out: inhibition on Nav1.7 currents", "result": "87.3 ± 4.4", "unit": "%"}, {"measurement": "IC50", "setting": "hNav1.7; whole-cell patch-clamp, 50 ms to −10 mV from −100 mV, n = 4–7 cells per data point", "result": "98.1 ± 3.3", "unit": "nM"}, {"measurement": "decrease of Nav1.3 current amplitude", "setting": "Nav1.3; 1 μM, 50 ms to −10 mV from −100 mV", "result": "67.7 ± 3.8", "unit": "%"}, {"measurement": "IC50", "setting": "Nav1.3; whole-cell patch-clamp, n = 4–7 cells per data point", "result": "491.3 ± 3.9", "unit": "nM"}, {"measurement": "selectivity ratio", "setting": "Nav1.5; cardiac isoform Nav1.5 vs Nav1.7, read-out: selectivity for Nav1.7 against Nav1.5", "result": "> 100"}, {"measurement": "IC50", "setting": "Nav1.5; cardiac muscle isoform, whole-cell patch-clamp, HEK293T", "result": "> 10", "unit": "µM"}, {"measurement": "inhibitory effect on Nav1.5 currents", "setting": "Nav1.5; up to 10 μM, HEK293T", "result": "no inhibitory effects"}, {"measurement": "dissociation time constant from Nav1.7", "setting": "Nav1.7; at 60 mV", "result": "547.2 ± 24.3", "unit": "ms"}, {"measurement": "dissociation time constant from Nav1.7", "setting": "Nav1.7; at 80 mV", "result": "347.9 ± 29.2", "unit": "ms"}, {"measurement": "dissociation time constant from Nav1.7", "setting": "Nav1.7; at 100 mV", "result": "169.8 ± 25.6", "unit": "ms"}, {"measurement": "τoff, WT Nav1.7", "setting": "WT Nav1.7; recovery upon washing with bath solution", "result": "295.6 ± 27.5", "unit": "s"}, {"measurement": "τon, WT Nav1.7", "setting": "WT Nav1.7", "result": "18.0 ± 2.5", "unit": "s"}]}
